Measured values: patent US9051351B2, “Hepatocyte growth factor mimics as therapeutic agents” (Washington State University, priority 2011, dated 2015)
Entries after “also recorded” stand apart in the source; their conditions may differ. Where a SMILES comes first, the peptide text is derived from it. [ ]: non-standard residue; d: D form. The star is where a group is joined. Hexanoyl = CCCCCC(=O)*; Ahx = NCCCCCC(=O)O

Assays:
human HGF = target: T1, human HGF (Homo sapiens, UniProt P14210); experiment: HGF dimerization (PAGE, silver staining); assay type: biochemical; details: 30 minutes, heparin
T1 construct: purchased R&D Systems (Minneapolis, Minn.)
Procedure: HGF dimerization was assessed using PAGE followed by silver staining (Kawas et al., 2011). Human HGF at a concentration of 0.08 ng/μl with or without 6-AH analogs was incubated with heparin at a final concentration of 5 μg/ml. Loading buffer was then added to each sample and the mixture separated by native PAGE using gradient Criterion XT precast gels (4-12% Bis-Tris; Biorad Laboratories, Hercules, Calif.). Next the gel was silver stained for the detection of the HGF monomers and dimers. Bands were quantitated from digital images using a UVP phosphoimager (Upland, Calif.).

hippocampal neurons = experiment: Dendritic spine counts (spinogenesis) in mRFP-β-actin transfected dissociated hippocampal neurons; assay type: cell-based, rat
CA1 hippocampal neurons = experiment: Spinogenesis in organotypic hippocampal slice cultures; assay type: cell-based, rat; details: 10^−12 M Nle1-AngIV or Dihexa, 10 ng/ml HGF; 2 days
Procedure: (§1) Hippocampi from P4 Sprague Dawley rats were cultured as previously described (Wayman, hnpey et al. 2006). Briefly, 400 μm slices were cultured on (Milipore, Billerica, Mass.) for 3 days after which they were biolistically transfected with tomato fluorescent protein (TFP) using a Helios Gen Gun (BioRad, Hercules, Calif.), according to the manufacturer's protocol, to visualize dendritic arbors. Following a 24 hour recovery period slices were stimulated with vehicle (H2O), 1 pM Nle1-AngIV or Dihexa for 2 days. Slices were fixed and mounted. Hippocampal CA1 neuronal processes were imaged and measured as described above.
as §1, with “Impey” for “hnpey”, “Gene” for “Gen”, “with” for “with vehicle (H2O),”, “Slices were fixed and mounted.” left out
Hippocampi from P4 Sprague Dawley rats were cultured as previously described (Wayman, Impey et al. 2006). […] Hippocampal CA1 neuronal processes were imaged and measured as described above.

T1 sequence (P14210 32-728): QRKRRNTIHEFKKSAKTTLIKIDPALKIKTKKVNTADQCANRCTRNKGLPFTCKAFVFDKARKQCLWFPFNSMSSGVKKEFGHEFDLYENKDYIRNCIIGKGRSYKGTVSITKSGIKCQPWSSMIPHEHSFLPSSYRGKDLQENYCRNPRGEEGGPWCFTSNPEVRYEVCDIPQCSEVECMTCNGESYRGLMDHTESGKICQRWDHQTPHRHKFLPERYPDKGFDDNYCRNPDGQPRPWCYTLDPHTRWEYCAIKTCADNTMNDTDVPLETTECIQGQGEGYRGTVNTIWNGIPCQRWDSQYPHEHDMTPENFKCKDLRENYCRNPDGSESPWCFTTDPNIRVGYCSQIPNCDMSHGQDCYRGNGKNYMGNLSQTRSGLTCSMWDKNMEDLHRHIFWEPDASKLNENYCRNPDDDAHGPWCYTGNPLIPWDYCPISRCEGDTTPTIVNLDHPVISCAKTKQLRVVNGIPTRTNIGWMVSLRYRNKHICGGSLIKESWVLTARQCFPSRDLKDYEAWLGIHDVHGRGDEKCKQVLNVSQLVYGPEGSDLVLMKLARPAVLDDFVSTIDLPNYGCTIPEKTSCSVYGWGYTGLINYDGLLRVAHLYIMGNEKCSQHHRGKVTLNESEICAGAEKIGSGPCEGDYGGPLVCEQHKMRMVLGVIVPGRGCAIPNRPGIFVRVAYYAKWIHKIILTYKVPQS

## CCCCCC(=O)N[C@@H](Cc1ccc(O)cc1)C(=O)N[C@H](C(=O)NCCCCCC(N)=O)[C@@H](C)CC [Dihexa, N-hexanoic-Tyr-Ile-(6)-aminohexanoic amide] (Hexanoyl-Tyr-Ile-[Ahx]-NH2)
Human HGF
  HGF dimerization in the presence of Dihexa: blocking HGF dimerization; also recorded: blocks HGF dimerization
Hippocampal neurons; 10^−12 M, 5 day treatment, vs vehicle
  increase in the number of spines: ~3 fold
Hippocampal neurons; 10^−12 M, acute 30 minute application on DIV12
  mean spine numbers per 50 μm dendrite length: 23.9 spines per 50 μm dendrite leng
Hippocampal neurons; neurons transfected with mRFP-β-actin alone, HGF 10 ng/ml, Dihexa or Nle1-AngIV 10^−12 M, 48 hours
  mean spine numbers per 50 μm dendrite length: 21.8 spines per 50 μm dendrite leng
Hippocampal neurons; neurons transfected with mRFP-β-actin and shMet (c-Met knock-down), HGF 10 ng/ml, Dihexa or Nle1-AngIV 10^−12 M
  mean spine numbers per 50 μm dendrite length: 12.0 spines per 50 μm dendrite leng
CA1 hippocampal neurons
  spines per 50 μm dendrite length in CA1 hippocampal neurons: 11 spines per 50 μm dendrite length
